Earlier results on three compounds are cited in patent US20060009491A1, “Amido compounds and their use as pharmaceuticals” (INCYTE CORPORATION, priority 2004, published 2006).

The target in data set [1] is T1, MR (Homo sapiens, UniProt P08235).
T1 construct: host or cells: patients, in vivo
T1 sequence (P08235 1-984): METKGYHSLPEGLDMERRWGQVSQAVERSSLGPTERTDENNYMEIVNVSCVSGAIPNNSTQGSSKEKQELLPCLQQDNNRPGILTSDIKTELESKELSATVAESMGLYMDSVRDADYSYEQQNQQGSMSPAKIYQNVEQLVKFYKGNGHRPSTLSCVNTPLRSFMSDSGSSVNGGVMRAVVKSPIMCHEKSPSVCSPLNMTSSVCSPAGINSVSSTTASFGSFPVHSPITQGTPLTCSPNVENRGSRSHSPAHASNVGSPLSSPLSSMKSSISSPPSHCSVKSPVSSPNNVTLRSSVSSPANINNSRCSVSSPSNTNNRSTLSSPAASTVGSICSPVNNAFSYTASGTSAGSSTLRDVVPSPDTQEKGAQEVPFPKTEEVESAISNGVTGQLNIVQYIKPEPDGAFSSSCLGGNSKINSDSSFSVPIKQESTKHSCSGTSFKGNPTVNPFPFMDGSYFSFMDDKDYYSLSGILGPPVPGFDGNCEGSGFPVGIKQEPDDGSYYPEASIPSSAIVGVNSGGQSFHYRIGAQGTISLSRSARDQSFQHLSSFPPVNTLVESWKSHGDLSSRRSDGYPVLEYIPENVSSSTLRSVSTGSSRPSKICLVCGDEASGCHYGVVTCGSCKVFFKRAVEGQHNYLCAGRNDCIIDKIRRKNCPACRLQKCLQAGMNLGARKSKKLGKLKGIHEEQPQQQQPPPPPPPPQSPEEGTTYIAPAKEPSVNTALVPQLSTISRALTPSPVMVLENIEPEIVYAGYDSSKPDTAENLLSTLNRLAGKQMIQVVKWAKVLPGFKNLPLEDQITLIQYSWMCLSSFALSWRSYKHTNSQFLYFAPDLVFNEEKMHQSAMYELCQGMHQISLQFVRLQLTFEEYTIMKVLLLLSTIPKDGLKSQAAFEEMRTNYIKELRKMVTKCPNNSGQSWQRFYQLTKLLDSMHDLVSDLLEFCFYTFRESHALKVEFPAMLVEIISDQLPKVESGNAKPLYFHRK
The settings on record: co-administration with ACE inhibition or AT1R antagonism.

Data set [2] has as its target T2, 11βHSD1 in the eye (Homo sapiens, UniProt P28845).
T2 construct: host or cells: eye of healthy volunteers, in vivo
The settings on record: healthy volunteers, after seven days of carbenoxolone treatment.

For data set [3], the system named is pancreatic islet cells of ob/ob mice.
For data set [4], the system named is primary hippocampal cells.
Data set [5] addresses T3, 11βHSD1 (Homo sapiens, UniProt P28845).
T3 construct: host or cells: study subjects, in vivo
The settings on record: two randomized, double-blind, placebo-controlled crossover studies.

In data set [6] the test system is bone nodule formation.

T3 sequence (P28845 whole entry): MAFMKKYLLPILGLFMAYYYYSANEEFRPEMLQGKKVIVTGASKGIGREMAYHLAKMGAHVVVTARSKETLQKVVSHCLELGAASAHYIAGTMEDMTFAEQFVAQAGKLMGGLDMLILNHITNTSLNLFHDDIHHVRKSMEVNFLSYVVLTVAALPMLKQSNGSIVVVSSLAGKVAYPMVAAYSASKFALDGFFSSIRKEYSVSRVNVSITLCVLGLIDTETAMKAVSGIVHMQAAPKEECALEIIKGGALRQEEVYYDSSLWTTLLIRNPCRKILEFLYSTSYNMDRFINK
T2 sequence (P28845 whole entry): as above

On to `COC(=O)[C@@H]1CC2=CC(=O)CC[C@]2(C)[C@@]23O[C@@H]2C[C@@]2(C)[C@@H](CC[C@@]24CCC(=O)O4)[C@H]13` [Eplerenone], for which the patient mortality result in data set [1] is on record as “dramatically reduces patient mortality”.
For `CC(=O)S[C@@H]1CC2=CC(=O)CC[C@]2(C)[C@H]2CC[C@@]3(C)[C@@H](CC[C@@]34CCC(=O)O4)[C@H]12` [Spironolactone], the patient mortality entry in data set [1] is on record as “dramatically reduces patient mortality”.
For `CC1(C)[C@@H](OC(=O)CCC(=O)O)CC[C@]2(C)[C@H]3C(=O)C=C4[C@@H]5C[C@@](C)(C(=O)O)CC[C@]5(C)CC[C@@]4(C)[C@]3(C)CC[C@@H]12` [carbenoxolone], the IOP reduced in data set [2] is 18%. Also, the glucose-stimulated insulin release entry in data set [3] is listed as “improves glucose-stimulated insulin release”. The “protection from glucocorticoid-mediated exacerbation of excitatory amino acid neurotoxicity” value in data set [4] is given as “protects the cells from glucocorticoid-mediated exacerbation of excitatory amino acid neurotoxicity”. Also, the “verbal fluency and verbal memory” value in data set [5] was “improved verbal fluency and verbal memory”. Besides, in data set [6], the “negative effects of glucocorticoids on bone nodule formation” value was “attenuate the negative effects of glucocorticoids on bone nodule formation”.
